Test results taken from patent publication US7592350B2, “Polycyclic compounds as potent alpha2-adrenoceptor antagonists” (Orion Corporation, priority 2002, dated 2009).

How the values were obtained:
alpha2C-adrenoceptor [1] = molecular target: T1, alpha2C-adrenoceptor (Homo sapiens, UniProt P18825); assay: Inhibition of epinephrine-stimulated 35S-GTPγS binding, CHO cell membranes (alpha2C); assay type: biochemical; design: expressed in transfected cells; host or cells: CHO cells (membranes); conditions: mean, read-out: Antagonist potency (KB) alpha2C
T1 sequence (P18825 1-462): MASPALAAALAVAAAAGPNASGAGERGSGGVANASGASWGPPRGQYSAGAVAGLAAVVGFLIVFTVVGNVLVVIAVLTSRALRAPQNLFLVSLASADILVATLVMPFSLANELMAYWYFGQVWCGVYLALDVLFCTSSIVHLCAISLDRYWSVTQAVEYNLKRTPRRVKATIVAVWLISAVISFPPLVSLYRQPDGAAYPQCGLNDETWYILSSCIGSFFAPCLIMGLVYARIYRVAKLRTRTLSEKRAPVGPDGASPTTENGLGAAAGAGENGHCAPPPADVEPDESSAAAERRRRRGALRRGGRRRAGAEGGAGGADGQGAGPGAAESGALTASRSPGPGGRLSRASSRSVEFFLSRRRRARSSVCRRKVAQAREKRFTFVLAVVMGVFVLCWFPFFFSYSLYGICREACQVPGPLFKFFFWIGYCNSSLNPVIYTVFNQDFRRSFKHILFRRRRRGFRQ
Procedure: (§1) The functional activities of two compounds (K and L) displaying alpha2C-selectivity in binding experiments were determined as the abilities of the compounds to inhibit the epinephrine-stimulated binding of ^35S-GTPγS to G proteins (Jasper, J. R. et al., Biochem. Pharmacol. 55(7) (1998) 103544) in membranes of CHO cells stably transfected with the human alpha2-adrenoceptor subtypes.

alpha2A-adrenoceptor [2] = molecular target: T2, alpha2A-adrenoceptor (Homo sapiens, UniProt P08913); assay: Radioligand binding to alpha2-adrenoceptors (alpha2A); conditions: calculated Ki from radioligand binding assays; read-out: Binding affinity (Ki) alpha2A
T2 sequence (P08913 1-465): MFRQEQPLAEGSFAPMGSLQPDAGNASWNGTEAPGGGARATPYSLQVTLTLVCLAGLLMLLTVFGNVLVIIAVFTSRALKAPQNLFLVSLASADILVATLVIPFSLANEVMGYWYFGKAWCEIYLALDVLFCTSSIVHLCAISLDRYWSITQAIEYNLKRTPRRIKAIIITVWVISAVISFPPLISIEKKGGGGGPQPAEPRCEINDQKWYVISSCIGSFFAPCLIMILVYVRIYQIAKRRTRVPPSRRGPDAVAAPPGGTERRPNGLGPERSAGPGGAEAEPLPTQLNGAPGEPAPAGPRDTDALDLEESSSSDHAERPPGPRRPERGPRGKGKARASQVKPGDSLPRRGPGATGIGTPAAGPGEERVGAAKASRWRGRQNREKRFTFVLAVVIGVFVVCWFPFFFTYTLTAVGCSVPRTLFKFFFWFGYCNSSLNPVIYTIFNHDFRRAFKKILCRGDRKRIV

alpha2A-adrenoceptor [3] = molecular target: T2, alpha2A-adrenoceptor; assay: Inhibition of epinephrine-stimulated 35S-GTPγS binding, CHO cell membranes (alpha2A); assay type: biochemical; design: expressed in transfected cells; host or cells: CHO cells (membranes); conditions: mean, read-out: Antagonist potency (KB) alpha2A
Procedure: as §1

alpha2B-adrenoceptor [4] = molecular target: T3, alpha2B-adrenoceptor (Homo sapiens, UniProt P18089); assay: Inhibition of epinephrine-stimulated 35S-GTPγS binding, CHO cell membranes (alpha2B); assay type: biochemical; design: expressed in transfected cells; host or cells: CHO cells (membranes); conditions: mean, read-out: Antagonist potency (KB) alpha2B
T3 sequence (P18089 1-450): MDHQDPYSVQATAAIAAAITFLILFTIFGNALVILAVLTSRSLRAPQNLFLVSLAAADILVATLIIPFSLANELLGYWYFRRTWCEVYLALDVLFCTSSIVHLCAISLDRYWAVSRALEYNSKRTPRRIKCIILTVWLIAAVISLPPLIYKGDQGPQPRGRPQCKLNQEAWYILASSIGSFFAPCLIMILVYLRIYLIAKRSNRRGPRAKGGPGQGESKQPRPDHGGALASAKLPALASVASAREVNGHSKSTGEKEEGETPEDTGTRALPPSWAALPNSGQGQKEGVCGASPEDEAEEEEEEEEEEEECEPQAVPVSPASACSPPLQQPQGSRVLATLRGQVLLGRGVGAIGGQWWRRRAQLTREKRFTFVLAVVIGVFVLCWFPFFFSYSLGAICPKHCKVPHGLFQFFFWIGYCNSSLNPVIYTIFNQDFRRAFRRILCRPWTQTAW
Procedure: as §1

rats [5] = assay: Forced swimming test; assay type: in vivo; conditions: compared to vehicle
Procedure: Forced swimming test (FST, i.e. Porsolt's test) is generally used in the pharmacological screening of new-antidepressants. In this test, antidepressants increase the animals' activity compared to non-treated controls. […] Therefore, it was tested, whether a selective alfa2C-antagonist would have antidepressant-like activity (e.g. activity-increasing property) in the FST. […] Also the positive control substances desipramine and fluoxetine (clinically effective antidepressant agents) were active.

mice = assay: Antagonism of alpha2-agonist (dexmedetomidine)-induced sedation; assay type: in vivo; conditions: dexmedetomidine 50 nmol/kg s.c., antagonist pre-treatment
Procedure: (veh=vehicle). (***p<0.001, compared to Dex+vehicle)
One of the prominent effects of non-selective alpha2-agonists in rodents is their ability to cause profound sedation. This effect, measured as locomotor inhibition by the alpha2-agonist dexmedetomidine was not modified in mice with genetically altered alpha2C-expression (Scheinin, M. et al., Life Sci 68(19-20) (2001) 2277-85). […] This assumption was tested in experiment, where dexmedetomidine was administered to mice pre-treated with the alpha2C-antagonists compound K or compound L, or the subtype non-selective antagonist atipamezole (Haapalinna, A. et al., Naunyn-Schmiedeberg's Arch. Pharmacol. 356 (1997) 570-582).

alpha2C-adrenoceptor [6] = molecular target: T1, alpha2C-adrenoceptor; assay: Radioligand binding to alpha2-adrenoceptors (alpha2C); conditions: calculated Ki from radioligand binding assays; read-out: Binding affinity (Ki) alpha2C
alpha2B-adrenoceptor [7] = molecular target: T3, alpha2B-adrenoceptor; assay: Radioligand binding to alpha2-adrenoceptors (alpha2B); conditions: calculated Ki from radioligand binding assays; read-out: Binding affinity (Ki) alpha2B
Source text: Examples of the alpha2-adrenoceptor binding affinities of the compounds including in the present invention are shown in the Table 1. Many of these compouinds are high-affinity ligands for all the alpha2-receptors, but some of them display selectivity for the alpha2C-subtype.

rats [8] = assay: Prepulse inhibition of the startle reflex; assay type: in vivo
Procedure: FIGS. 4a and 4b show the effect of compounds K and L on the startle reflex and its prepulse inhibition in rats. (Veh=vehicle). Asterisks as in FIG. 1; comparisons were performed between PCP (phencyclidine)+vehicle and PCP+compounds K and L.
FIGS. 5a and 5b show the effect of the non-selective antagonist atiparnezole (ati) on the startle reflex and its prepulse inhibition in rats in the prescence of phencyclidine (PCP); (veh=vehicle). Asterisks as in FIG. 1, compared to the vehicle+PCP -group.
Prepulse-inhibition (PPI) of a startle response refers to the reduction in the startle response caused by a low intensity non-startling stimulus (the prepulse) which is presented shortly before the startle stimulus. PPI can be used as an operational measure of sensorimotor gating and appears to be present in all mammals, including rats and humans (Swerdlow, N. R. et al., The archives of general psychiatry 51 (1994) 139-154). Normally finctioning PPI can be disrupted by psychostimulants, such as d-amphetamine or phencyclidine (PCP), and reversed by clinically effective antipsychotics.
This hypothesis was tested with compounds K and L alone and against PCP disruption of the PPI. […]

SMILES	Kb (alpha2C-adrenoceptor [1]) [nM]	Ki (alpha2A-adrenoceptor [2]) [nM]	Kb (alpha2A-adrenoceptor [3]) [nM]	Kb (alpha2B-adrenoceptor [4]) [nM]	Activity in the forced swimming test (rats [5]; 3 micromol/kg)	Antagonism of dexmedetomidine-induced sedation (locomotor inhibition) (mice)	Ki (alpha2C-adrenoceptor [6]) [nM]	Ki (alpha2B-adrenoceptor [7]) [nM]	Activity in the forced swimming test (rats [5]; 10 micromol/kg)	Effect on prepulse inhibition (PPI) disrupted by PCP (rats [8]; antagonist 20 min, PCP 10 min before measurement)	Effect on startle reflex per se (startle without prepulses) (rats [8]; in the presence of PCP)
CCC1(O)CCCN2CCc3c([nH]c4ccccc34)C21 (stereo not drawn) [Compound K, 1α-Ethyl-1,2,3,4,6,7,12,12bβ-octahydroindolo[2,3-]quinolizin-1-ol]	23	359	295	351	increased activity	did not have clear effects	31	245			
CNCCC(Oc1ccc(C(F)(F)F)cc1)c1ccccc1 (stereo not shown) [fluoxetine]									increased activity		
CNCCCN1c2ccccc2CCc2ccccc21 [desipramine]									increased activity		
CCC1(c2cnc[nH]2)Cc2ccccc2C1 [atipamezole]						effectively antagonised the effect of dexmedetomidine			did not possess antidepressant-like effect	did not enhance PPI	increased the startle reflex per se
CC[C@]1(CO)CCCN2CCc3c([nH]c4ccccc34)[C@@H]21 (relative stereo) [Compound L]	4.2	85	320	75	increased activity	did not have clear effects	18	20			
